Data: patent US12404276B2, “Substituted pyrrolo[3,4-c]pyrazoles for treating gastric acid-related diseases” (SHANGHAI MEDICILON INC., priority 2019, dated 2025)

The compounds below were run against T1, H+/K+ ATPase (Oryctolagus cuniculus, UniProt P27112) (assay: Determination of compounds' inhibition of H+/K+ ATPase enzyme activity (malachite green, OD 620 nm)). Settings: enzyme extracted from rabbit stomach mucosa; pH 6.5; 500 μM ATP; 37° C.; read-out: IC50(μM) inhibition rate (IC50) of H+/K+ ATPase enzyme activity.
T1 construct: The stomach tissue of the rabbit was separated; from tissue; host or cells: rabbit stomach fundus mucosa, microsomal/Ficoll membrane fraction
Assay type: biochemical
Excerpt: Test Example: Determination of Compounds' Inhibition of H+/K+ ATPase Enzyme Activity
The following experiment is used to determine the inhibitory effect of the compound of the present invention on the H+/K+ ATPase enzyme activity.
• Plate reader: SpectraMax M5(MD) • Malachite Green (Sigma Aldrich, 213020-25G) • Ammonium molybdate (Sigma Aldrich, 277908-20G) • ATP (Sigma Aldrich, A1852-1VL). 2. Buffer Preparation • Enzyme working solution: titrating the enzyme, diluting the enzyme with buffer solution 1, and taking 5 μl of the diluted solution into 50 μl reaction system • ATP solution: 100 mM ATP was diluted to 5 mM with no K+ buffer, and 5 μl of the diluted solution was added to the 50 μl reaction system, that is, the final concentration of ATP was 500 μM MLG color development liquid: 0.12% MLG, 7.5% ammonium molybdate, 11% Tween-20 was mixed as 100:25:2, and adding 15 μl of the mixture into each well during detection. • Buffer 1: 50 mM Tris-HCl pH 6.5, 5 mM magnesium chloride (magnesium chloride), 10 μM valinomycin (valinomycin) • Buffer 2: 50 mM Tris-HCl pH 6.5, 5 mM magnesium chloride (magnesium chloride), 10 μM valinomycin (valinomycin), 20 mM KCl • Homogenization buffer: 10 mmol/L Tris-HCl, pH 6.8, 0.25 M sucrose (sucrose), 1 mmol/LEDTA 7.5% Ficoll layering solution: homogenization buffer+7.5% (W/W) (Ficoll 400). 3. Experimental Steps […] Enzyme Extraction • (1) The stomach tissue of the rabbit was separated, and the blood was washed with tap water, food residue. • (2) The fundus portion was thoroughly washed with pre-cooled NaCl solution to remove surface mucus. • (3) The stripped mucosa was filled into a sample bag or a 50 ml centrifuge tube, and quickly freezing in a liquid nitrogen tank. • (4) The tissue was removed, minced with surgical scissors, and a pre-cooled homogenization buffer (4 ml/g tissue) was added and homogenized in a tissue homogenizer for 2 to 10 minutes. • (5) After homogenization, if there were larger tissue particles, they could be removed by centrifugation (600 g, 10 min), and then the supernatant was transferred to a clean centrifuge tube. After centrifugation at 20000 g for 30 minutes, then the supernatant was transferred to a clean centrifuge tube at 100000 g for 90 minutes, and the precipitate was collected. • (6) Resuspending the precipitate with homogenization buffer, blowing uniformly, adding 7.5% Ficoll layering solution at equal ratio, centrifuging at 100000 g for 90 minutes, and collecting the precipitate. • (7) Resuspending the precipitate with homogenization buffer, blowing uniformly, and the protein concentration was measured by Bradford. Freezing in tubes at −80° C. for later use. 3.2. H+/K+ ATPase Activity Experiment • (1) Adding 35 μl of reaction buffer to each experimental well, and then adding […]. • (2) Adding 5 μl buffer 1 containing 10% DMSO to the whole enzyme and buffer well. • (3) Adding 5 μl of 10× compound working solution to the compound well and mixing well. • (4) Adding 5 μl of buffer 1 to the buffer well. • (5) Adding 5 μl of 10× enzyme working solution to the remaining wells, mixing and incubating at 37° C. for 30 minutes. • (6) Adding 5 μl of 10×ATP working solution to all experimental wells, mixing and incubating at 37° C. for 20 min. • (7) Adding 15 μl MLG chromogenic solution to all experimental wells, and uniformly mixing and incubating at room temperature for 5-30 min. • (8) The reading number of 620 nm was detected by an M5 instrument. 4. Data Analysis
The inhibition rate is calculated with the following formula: Inhibition rate (IC50)=[OD (sample well)−OD (full enzyme well containing potassium chloride)]/[(OD (full enzyme well containing potassium chloride)−(OD (full enzyme well without potassium chloride)]×100% 5. Experimental Results

T1 sequence (P27112 whole entry): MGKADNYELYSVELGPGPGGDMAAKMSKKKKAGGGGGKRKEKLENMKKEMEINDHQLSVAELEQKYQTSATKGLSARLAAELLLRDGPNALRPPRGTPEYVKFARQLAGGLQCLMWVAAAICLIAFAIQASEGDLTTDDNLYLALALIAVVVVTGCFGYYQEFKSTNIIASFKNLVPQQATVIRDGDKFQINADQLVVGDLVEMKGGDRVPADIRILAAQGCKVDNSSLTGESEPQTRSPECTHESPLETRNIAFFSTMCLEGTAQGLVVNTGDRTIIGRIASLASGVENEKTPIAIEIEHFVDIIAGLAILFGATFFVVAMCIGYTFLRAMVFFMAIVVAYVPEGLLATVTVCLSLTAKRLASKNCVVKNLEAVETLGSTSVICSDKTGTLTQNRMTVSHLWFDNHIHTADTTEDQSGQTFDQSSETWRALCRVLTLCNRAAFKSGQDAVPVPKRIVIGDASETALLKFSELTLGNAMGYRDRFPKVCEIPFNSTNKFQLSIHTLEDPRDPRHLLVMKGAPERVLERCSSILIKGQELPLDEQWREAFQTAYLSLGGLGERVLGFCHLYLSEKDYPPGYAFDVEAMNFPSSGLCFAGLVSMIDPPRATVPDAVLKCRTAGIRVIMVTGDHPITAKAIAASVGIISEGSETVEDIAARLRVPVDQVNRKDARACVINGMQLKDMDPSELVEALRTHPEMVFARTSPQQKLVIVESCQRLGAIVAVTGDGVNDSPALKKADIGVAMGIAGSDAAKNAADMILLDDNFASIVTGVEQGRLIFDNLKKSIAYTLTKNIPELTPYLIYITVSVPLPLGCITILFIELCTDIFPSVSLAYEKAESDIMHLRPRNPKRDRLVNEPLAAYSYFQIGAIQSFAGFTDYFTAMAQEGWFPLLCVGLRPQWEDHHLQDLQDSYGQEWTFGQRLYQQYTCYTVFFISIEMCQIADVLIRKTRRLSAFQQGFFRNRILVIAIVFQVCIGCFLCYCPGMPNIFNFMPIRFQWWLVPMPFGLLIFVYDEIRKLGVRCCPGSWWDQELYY
T1 sequence (P18597 whole entry partner): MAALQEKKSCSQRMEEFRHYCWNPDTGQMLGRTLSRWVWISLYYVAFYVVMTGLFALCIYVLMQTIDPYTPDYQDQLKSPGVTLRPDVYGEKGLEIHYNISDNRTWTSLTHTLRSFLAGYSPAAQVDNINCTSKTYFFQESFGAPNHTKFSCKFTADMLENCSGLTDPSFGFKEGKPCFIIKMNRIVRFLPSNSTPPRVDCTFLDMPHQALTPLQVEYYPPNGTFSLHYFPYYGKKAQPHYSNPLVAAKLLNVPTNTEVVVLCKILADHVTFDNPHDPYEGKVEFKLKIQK

| Structure (SMILES) | IC50 |
| --- | --- |
| CN1Cc2nn(Cc3ccc(O)c(C4=CCOCC4)c3)c(-c3ccccc3F)c2C1 [Example 1, 2-(3,6-dihydro-2H-pyran-4-yl)-4-((3-(2-fluorophenyl)-5-methyl-5,6-dihydropyrrolo[3,4-c]pyrazole-2(4H)-yl)methyl)phenol] | 0.233 µM |
| CN1Cc2nn(Cc3cccc(C4=CCCOC4)c3)c(-c3ccccc3F)c2C1 [Example 3, 2-(3-(5,6-dihydro-2H-pyran-3-yl)benzyl)-3-(2-fluorophenyl)-5-methyl-2,4,5,6-tetrahydropyrrolo[3,4-C]pyrazole] | 0.197 µM |
| CN1Cc2nn(Cc3cccc(C4=CCNCC4)c3)c(-c3ccccc3F)c2C1 [Example 9, 3-(2-fluorophenyl)-5-methyl-2-(3-(1,2,3,6-tetrahydropyridin-4-yl)benzyl)-2,4,5,6-tetrahydropyrrolo[3,4-C]pyrazole] | 0.208 µM |
| CN1Cc2nn(Cc3cccc(C4=CCOCC4)c3)c(-c3cccnc3F)c2C1 [Example 10, 2-(3-(3,6-dihydro-2H-pyran-4-yl)benzyl)-3-(2-fluoropyridin-3-yl)-5-methyl-2,4,5,6-tetrahydropyrrolo[3,4-c]pyrazole] | 0.769 µM |

Stronger by IC50, values ahead:

| IC50 | Structure (SMILES) |
| --- | --- |
| 0.0559 µM | CN1Cc2nn(Cc3ccc(O)c(C4=CCCOC4)c3)c(-c3ccccc3F)c2C1 [Example 2, 2-(5,6-dihydro-2H-pyran-3-yl)-4-((3-(2-fluorophenyl)-5-methyl-5,6-dihydropyrrolo[3,4-c]pyrazole-2(4H)-yl)methyl)phenol] |
| 0.113 µM | CN1Cc2nn(Cc3cc(O)cc(C4=CCCOC4)c3)c(-c3ccccc3F)c2C1 [Example 4, 3-(5,6-dihydro-2H-pyran-3-yl)-5-((3-(2-fluorophenyl)-5-methyl-5,6-dihydropyrrolo[3,4-c]pyrazole-2(4H)-yl)methyl)phenol] |
| 0.0883 µM | CN1Cc2nn(Cc3cccc(C4=CCOCC4)c3)c(-c3ccccc3F)c2C1 [Example 5, 2-(3-(3,6-dihydro-2H-pyran-4-yl)benzyl)-3-(2-fluorophenyl)-5-methyl-2,4,5,6-Tetrahy dropyrrolo[3,4-C]pyrazole] |
| 0.121 µM | CN1Cc2nn(Cc3cc(Cl)cc(C4=CCOCC4)c3)c(-c3ccccc3F)c2C1 [Example 6, 2-(3-chloro-5-(3,6-dihydro-2H-pyran-4-yl)benzyl)-3-(2-fluorophenyl)-5-methyl-2,4,5,6-tetrahydropyrrolo[3,4-c]pyrazole] |
| 0.114 µM | CN1Cc2nn(Cc3ccc(F)c(C4=CCOCC4)c3)c(-c3ccccc3F)c2C1 [Example 7, 2-(3-(3,6-dihydro-2H-pyran-4-yl)-4-fluorobenzyl)-3-(2-fluorophenyl)-5-methyl-2,4,5,6-tetrahydropyrrolo[3,4-c]pyrazole] |
| 0.0811 µM | CN1Cc2nn(Cc3cc(O)cc(C4=CCOCC4)c3)c(-c3ccccc3F)c2C1 [Example 8, 3-(3,6-dihydro-2H-pyran-4-yl)-5-((3-(2-fluorophenyl)-5-methyl-5,6-dihydropyrrolo[3,4-c]pyrazole-2(4H)-yl)methyl)phenol] |
